Results from patent US11185527B2, “Methods and compositions relating to steroid hormone receptor-dependent cancers” (Wayne State University, priority 2017, dated 2021).

What was measured:
[1] = Body weight and condition of mice in the 22Rv1 xenograft study; conditions: 22Rv1 study
[2] = system: BT474 cells; test: Breast cancer cell growth, MTT assay; assay type: cell-based
Method: (§1) Twenty four hours after plating the cells, they were treated with the indicated concentrations of the compound.

[3] = system: T47D cells; test: Breast cancer cell growth, MTT assay; assay type: cell-based
Method: as §1

[4] = system: MCF-7 cells; test: Breast cancer cell growth, MTT assay; assay type: cell-based
Method: as §1

[5] = system: H1650 (lung adenocarcinoma cells), AR-negative; test: Cell monolayer growth assay (MTT); assay type: cell-based
Method: FIG. 12D is a graph showing the effect of KCI807 on in vitro growth of AR-negative cell line H1650 cells measured by the MTT assay. All values were plotted relative to the Day zero value. Cells were trypsinized and 3000-4000 cells/well were seeded in 96-well plates coated with poly-D-lysine. The cells were seeded in phenol red-free medium supplemented with 10% FBS, 100 units/ml penicillin, 100 μg/ml streptomycin, 2 mM L-glutamine mixture and sodium pyruvate (1 mM) for LNCaP cells and phenol red-free medium supplemented with 10% FBS, 100 units/ml penicillin, 100 μg/ml streptomycin and 2 mM L-glutamine mixture for VCaP, 22Rv1, DU145, HeLa, HEK293 and H1650 cells. The cells were grown at 37° C. in 5% CO2. Twenty four hours after seeding in the 96-well plates, the cells were treated with the indicated concentration of KCI807 or DMSO (vehicle). The cells were re-treated on Day 3 by removing half the volume of medium and replacing it with fresh treated medium. Cell viability was determined using the MTT assay from day zero until day five. MTT (10 μL, 5 mg/mL) was added to each well and incubated for 2h at 37° C. The formazan crystal sediments were dissolved in 100 μL of DMSO, and the absorbance at 570 nm was measured using the BioTek Synergy 2 Microplate Reader (BioTek, Winooski, Vt.). The assay was conducted in sextuplicate wells and values were normalized to day zero.

[6] = male, SCID, mouse, in vivo, ip, 250 mg/kg, 6 h
[7] = Intracellular concentration of compounds by LC-MS/MS (relative stability); assay type: in vitro ADME; conditions: media concentration of 2 uM compound
Method: The suspended cells were sonicated to cell lysate, and then 1000 μL ethyl acetate was added. The mixture was vortex-mixed for 15 minutes and centrifuged at 14000 rpm at […] for 15 min. 950 uL of the supernatant was transferred to a new 1.7 mL centrifuge tube, and dried under a steam of nitrogen at room temperature. The sample was then reconstituted with 100 μL 40% acetonitrile, and 5 μL was injected into the LC-MS/MS system. Measured concentrations were normalized to cell protein concentrations.

[8] = Body weight and condition of mice in the PDX-PR011 xenograft study; conditions: for % body weight lost/gained: PDX-PR011 study
[9] = system: AR target genes in 22Rv1 CRPC cells; test: Real time RT-PCR of AR target gene mRNAs in 22Rv1 cells; assay type: cell-based, human; conditions: 22Rv1, 10 μM, 72h
Method: FIG. 3D is a graph showing that in 22Rv1 cells were treated with 10 μM of KCI807 for 72h and real time RT-PCR was used to measure mRNAs for the indicated panel of genes tested in FIG. 3B and FIG. 3C.
Total RNA was isolated from cells using the RNeasy Mini Kit (Qiagen). Reverse transcription PCR was then performed using 500 ng of total RNA with random primers and using the high-capacity complementary DNA Archive kit (Applied Biosystems). The complementary DNA from this reaction was measured using quantitative real time PCR using the StepONE Plus Real Time PCR system (Life Technologies Corporation, Carlsbad, Calif.). All reactions were performed in triplicate and normalized to glyceraldehyde-3-phosphate-dehydrogenase values in the same samples. All primers and Taqman probes were purchased from the applied Biosystems inventory (Invitrogen)
To test the selectivity of KCI807 for ELK1-dependent gene activation by AR vs. other target genes of the receptor, 22Rv1 CRPC cells, which are dependent on both full length AR and AR-V7 for hormone-independent growth, were used. […]

CNC(=O)c1ccc(N2C(=S)N(c3ccc(C#N)c(C(F)(F)F)c3)C(=O)C2(C)C)cc1F [enzalutamide]
% body weight lost/gained ([1]; Day 0 after tumor implantation): 0% | % body weight lost/gained ([1]; Day 6 after tumor implantation): +3.7% | % body weight lost/gained ([1]; Day 11 after tumor implantation): +5.5% | % body weight lost/gained ([1]; Day 14 after tumor implantation): +3.7% | % body weight lost/gained ([1]; Day 17 after tumor implantation): +4.6% | % body weight lost/gained ([1]; Day 20 after tumor implantation): +4.6% | % body weight lost/gained ([1]; Day 24 after tumor implantation): +4.6% | % body weight lost/gained ([1]; Day 25 after tumor implantation): +3.7%

O=c1cc(-c2cccc(O)c2)oc2cccc(O)c12 [KCI807, 5,3′-dihydroxyflavone]
growth of BT474 cells [2]: growth inhibitory | growth of T47D cells [3]: growth inhibitory | growth of MCF-7 cells [4]: growth inhibitory | growth of H1650 cells [5]: did not appreciably affect the growth | plasma level of unmetabolized compound (median), Day 11 [6]: 387 nM | plasma level of unmetabolized compound (median), Day 19 [6]: 70 nM | intracellular concentration between 1h and 6h [7]: unchanged | % body weight lost/gained ([8]; Day 1 after tumor implant): 0% | % body weight lost/gained ([8]; Day 2 after tumor implant): −3.8% | % body weight lost/gained ([8]; Day 3 after tumor implant): −4.6% | % body weight lost/gained ([8]; Day 4 after tumor implant): −2.3% | % body weight lost/gained ([8]; Day 5 after tumor implant): −2.3% | % body weight lost/gained ([8]; Day 6 after tumor implant): −1.5% | % body weight lost/gained ([8]; Day 7 after tumor implant): 0% | % body weight lost/gained ([8]; Day 8 after tumor implant): −1.5% | % body weight lost/gained ([8]; Day 9 after tumor implant): +0.8% | % body weight lost/gained ([8]; Day 10 after tumor implant): +0.8% | % body weight lost/gained ([8]; Day 11 after tumor implant): +1.5% | % body weight lost/gained ([8]; Day 12 after tumor implant): +3.1% | symptoms during the study, PDX-PR011 xenograft ([8]; mouse, in vivo): asymptomatic | weight loss (in words), PDX-PR011 xenograft ([8]; mouse, in vivo): did not show appreciable weight loss | effect on mRNA of AR target genes [9]: decreased expression of only the genes known to be supported synergistically by ELK1 and AR
